Here are results for two compounds from paper PMC5400251, “Effect of quinoline based 1,2,3-triazole and its structural analogues on growth and virulence attributes of Candida albicans” (PLoS ONE, 2017).

Series [1] in a line: Hemolytic assay. Format: cell-based. To be noted: human, human red blood cells (erythrocyte suspension), 37°C, read-out: Hemolysis of hRBCs. The method, then:
Human blood from a healthy individual was collected in tubes containing EDTA as anti-coagulant. The erythrocytes were harvested by centrifugation for 10 min at 2000 rpm and 20°C, washed three times in PBS. To the pellet, PBS was added to yield a 10% (v/v) erythrocytes/PBS suspension. The 10% suspension was then diluted 1:10 in PBS. From each suspension, 100 μL was added in triplicate to 100 μL of a different dilution series of test compounds in the same buffer in micro centrifuge tubes. […] The tubes were incubated for 1 h at 37°C and then centrifuged for 10 min at 2000 rpm and 20°C. From the supernatant, 150 μL was transferred to a flat-bottomed microtiter plate (Tarson), and the absorbance was measured spectrophotometrically at 450 nm. The hemolysis percentage was calculated by following equation: %Hemolysis=[(A450oftestcompoundtreatedsample−A450ofbuffertreatedsample)÷(A450of1%TritonX−100treatedsample−A450ofbuffertreatedsample)]×100

Series [2] relates to ergosterol biosynthesis. Description: Ergosterol estimation assay.
Series [3] deals with C. albicans ATCC 90028. Description: Transmission electron microscopic analysis of morphology. Format: cell-based. The conditions noted are these: MIC, 1 h exposure. The method, then:
The morphology of C. albicans ATCC 90028 was analyzed using TEM following the standard protocol. […] Cells were then washed thrice with phosphate buffer solution to remove the residual medium and fixed overnight in 2.5% glutaraldehyde in phosphate/magnesium buffer (40 mM K2HPO4/KH2PO4, pH 6.5–0.5 mM MgCl2). Cells were washed twice for 15 min in 0.1 M sodium phosphate buffer (pH 6.0) and post-fixed for 2 h in 2% osmium tetroxide. Cells were again washed twice for 15 min in distilled water and then en bloc stained with 1% uranyl acetate (aqueous) for 30 min. After two further washes, cells were dehydrated in 95% and 100% ethanol. Cells were then exposed to propylene oxide for 2×10 min and infiltrated for 1 h in 1:1 propylene/epoxy embedding material (Epon) mixture and then overnight in fresh Epon. After polymerization for 48 h at 60°C, ultrathin sections were cut using a microtome (LeicaEM UC6) and transferred to a copper grid. Samples were stained with uranyl acetate (saturated solution of uranyl acetate in 50% alcohol) followed by lead citrate. Samples were washed three times in Milli-Q (MQ) water and dried by touching Whatman filter paper. Sections were examined with a FEI Tecnai G^2 TF20 transmission electron microscope at 200 KV.

Series [4] deals with T1, plasma membrane H+ ATPase (Candida albicans, UniProt P28877).
T1 construct: endogenous in cells; host or cells: C. albicans ATCC 90028; clinical isolates C. albicans D27 (FLC-susceptible) and D15.9 (FLC-resistant); mid-log phase whole cells
T1 sequence (P28877 whole entry): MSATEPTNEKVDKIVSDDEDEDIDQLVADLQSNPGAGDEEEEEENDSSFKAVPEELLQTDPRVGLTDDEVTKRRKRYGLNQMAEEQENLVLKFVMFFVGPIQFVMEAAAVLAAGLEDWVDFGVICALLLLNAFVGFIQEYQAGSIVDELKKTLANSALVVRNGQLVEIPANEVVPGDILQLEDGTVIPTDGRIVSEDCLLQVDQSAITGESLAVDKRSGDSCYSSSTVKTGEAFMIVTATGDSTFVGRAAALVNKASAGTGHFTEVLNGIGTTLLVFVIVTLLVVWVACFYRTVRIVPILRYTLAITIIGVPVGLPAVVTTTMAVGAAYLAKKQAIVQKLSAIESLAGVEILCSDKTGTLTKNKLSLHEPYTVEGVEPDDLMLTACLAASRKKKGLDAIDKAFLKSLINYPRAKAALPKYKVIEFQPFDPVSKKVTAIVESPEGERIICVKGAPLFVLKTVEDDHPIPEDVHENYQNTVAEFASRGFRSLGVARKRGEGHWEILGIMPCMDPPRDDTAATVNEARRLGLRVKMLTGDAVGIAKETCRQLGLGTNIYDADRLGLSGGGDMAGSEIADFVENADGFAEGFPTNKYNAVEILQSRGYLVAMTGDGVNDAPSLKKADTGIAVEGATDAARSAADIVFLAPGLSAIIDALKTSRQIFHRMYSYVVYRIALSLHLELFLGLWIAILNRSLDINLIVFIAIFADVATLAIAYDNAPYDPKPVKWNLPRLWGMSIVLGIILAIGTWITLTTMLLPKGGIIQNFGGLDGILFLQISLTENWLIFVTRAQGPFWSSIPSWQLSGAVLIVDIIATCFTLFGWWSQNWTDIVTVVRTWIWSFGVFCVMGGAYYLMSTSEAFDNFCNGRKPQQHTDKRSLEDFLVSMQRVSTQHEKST
Description: Proton extrusion measurement (H+ efflux). Format: cell-based, C. albicans D27 (FLC-susceptible). The method, then: The proton pumping activity of C. albicans was determined by monitoring acidification of external medium by measuring pH as describe earlier. In brief, the mid-log phase cells were harvested from SD medium by centrifugation at 3000 rpm for 15 min which is followed by three washings with phosphate buffer saline (PBS). A solution containing 0.1 M KCl and 0.1 mM CaCl2 in distilled water was prepared. Compounds 3a and 3b at the concentrations of 50 and 100 μg/mL were separately added in this solution. […] Initial pH was adjusted to 7.0 using 0.01 M HCl/NaOH. Approximately 0.2 g of cells were suspended in each set of solution. Suspension was kept in a double-jacketed glass container with constant stirring. Again, the pH of suspension was maintained as 7.0 for 1 min by using 0.01 N NaOH. The rate of H^+ extrusion was then monitored and calculated from the volume of 0.01 N NaOH consumed per min per mg weight of cells. Glucose has been reported as the stimulator of proton extrusion pump. Therefore above experiment was also repeated in the presence of 5 mM of glucose.

Series [5] deals with proteinase secretion. Description: Proteinase assay (BSA agar, Pz value). Format: cell-based, C. albicans D15.9 (FLC-resistant). To be noted: for Decrease of proteinase secretion: at MIC, 1 h exposure. The method, then:
(§1) Following incubation, 1.5 mL of the yeast culture was taken into micro centrifuge tubes and centrifuged at 3000 rpm, for 5 min. The pellet obtained was washed by phosphate buffer saline (PBS) twice to remove the residual medium. […] Volumes of 1μL were placed at equidistant points on proteinase agar medium (0.1% yeast nitrogen base w/o amino acids; 0.145% ammonium sulfate; 2% glucose with 0.2% (w/v) BSA fraction V mixed into agar at ∼40°C) and incubated at 37°C for 3 days. The experiment was performed in duplicate. Secreted proteinase enzyme will degrade BSA and form zone of clearance around the yeast colonies. An index (Pz value) was used to represent the extent of proteinase activity by different strains of C. albicans. A Pz value of 1.0 depicts no enzyme activity. It was calculated as follows: Pzvalue=diameterofcolony/diameterofcolony+diameterofzoneofdegradation

Series [6] concerns proteinase secretion. Description: Proteinase assay (BSA agar, Pz value). The format is cell-based, C. albicans D27 (FLC-susceptible). The conditions noted are these: at MIC, 1 h exposure. The method, then: as §1
Series [7] has as its system C. albicans. The experiment in a line: Disk diffusion assay, appearance of zones (strains not distinguished). The format is cell-based. Here is the method:
Disk diffusion assay was performed using C. albicans ATCC 90028 (standard), the two clinical isolates, C. albicans D27 (FLC-susceptible), and C. albicans D15.9 (FLC-resistant) for the lead inhibitors 3a and 3b. The C. albicans cells were inoculated into liquid SD medium and grown over night at 37°C. The cells were then centrifuged at 3000 rpm for 5 min, washed three times with PBS and then suspended in PBS again. Approximately, 10^5 cells/mL were inoculated into molten SD agar medium at 42°C and poured into 100-mm-diameter petriplates. Sterilized 4 mm disks of Whatman paper were placed on solid agar and 1, 2, and 4 μL of 3a and 2, 4, and 8 μL of 3b from the stock solution of 10 mg/mL were spotted on the disk. […] The diameter of zone of inhibition (ZOI) was recorded in millimetres after 48 h and was compared with that of control. This experiment was repeated thrice and values were shown in terms of mean ±standard error of mean.
For orientation: In agar diffusion tests the substance spreads into inoculated agar from a disc or well.

For series [8], the system named is phospholipase secretion. The experiment in a line: Phospholipase assay (egg yolk agar, Pz value). The format is cell-based, C. albicans D15.9 (FLC-resistant). The method, then:
Phospholipase activity was performed using the method of Price et al. (1982) with minor modifications. The cells were incubated at 37°C for 18 h and then centrifuged at 3000 rpm for 5 min. The pellet obtained was washed with PBS twice to remove the residual culture medium. […] Volumes of 1 μL were placed at equidistant points on phospholipase agar media plates (1% peptone; 3% glucose; 5.73% NaCl; 0.055% CaCl2 with 10% (v/v) egg yolk emulsion) and incubated at 37°C for 4 days. The secretion of phospholipases was determined by the formation of opaque zones due to precipitation around the yeast colonies. The assay was conducted in duplicate. Pz values were calculated as follows: Pzvalue=diameterofcolony/diameterofcolony+diameterofzoneofprecipitaion

[9] abbreviates: 50 μg/mL in presence of glucose (5 mM).
The mark [10] stands for this setting: 100 μg/mL in presence of glucose (5 mM).
[11] abbreviates: in the presence of glucose (5 mM), 100 μg/mL, read-out: Inhibition of H+ extrusion rate.
The mark [12] stands for this setting: read-out: Inhibition of H+ extrusion.

Read-outs that look alike come from different tables or passages of the source.

As to `c1ccc(Cn2cc(COc3cccc4cccnc34)nn2)cc1` [Compound 3a], in series [1], the hemolysis at 1 h, 500 μg/mL was 4.76%. Moreover, the “Mean decrease in total ergosterol content” value in series [2] (above MIC/2, 16 h) is recorded as 100%; in series [2] (at MIC/4, 16 h), 48%. In addition, the “Cell morphology by TEM” value in series [3] is given as “several deformations”. For the same compound, the “Range of relative H+ efflux rate” value in series [4] (setting [9]) was 21.60 ± 1.0 ×10^−6 mol min^−1 mg cells^−1; in series [4] (50 μg/mL, no glucose) it was 20.00 ± 1.0 ×10^−6 mol min^−1 mg cells^−1; in series [4] (setting [10]), 19.30 ± 0.9 ×10^−6 mol min^−1 mg cells^−1; in series [4] (100 μg/mL, no glucose), 16.60 ± 0.8 ×10^−6 mol min^−1 mg cells^−1. Further, the inhibition (commonly the change of the read-out against control, counted positive when it falls) at 100 µg/mL in series [4] (setting [11]) amounted to 52%; in series [4] (setting [12]) it was 45%. Besides, the “Decrease of proteinase secretion (fold)” value in series [5] (Fig 4 legend) was “two fold”. The figures for the “Decrease of proteinase secretion” value in series [5] and in series [6] were 45% and 30%, respectively. Besides, the “Appearance of zone around disks (clear = fungicidal nature, turbid = fungistatic nature)” value in series [7] is reported as “clear”. Besides, the “Decrease of phospholipase secretion” value in series [8] (at MIC, 1 h exposure) was determined as 34%; in series [8] (at MIC/4, 1 h exposure) it was 25%.

For `Clc1ccc(OCc2cn(Cc3ccccc3)nn2)c2ncccc12` [Compound 3b, 8-((1-Benzyl-1H-1,2,3-triazol-4-yl)methoxy)-5-chloroquinoline], the hemolysis at 1 h, 500 μg/mL in series [1] is 26.8%. Moreover, the “Mean decrease in total ergosterol content” value is recorded as 100% in series [2] (above MIC/2, 16 h) and 33% in series [2] (at MIC/4, 16 h). In series [3], the “Cell morphology by TEM” value was “several deformations”. In addition, the “Range of relative H+ efflux rate” value in series [4] (setting [9]) is reported as 22.30 ± 1.1 ×10^−6 mol min^−1 mg cells^−1; in series [4] (50 μg/mL, no glucose), 17.60 ± 0.8 ×10^−6 mol min^−1 mg cells^−1; in series [4] (setting [10]), 19.30 ± 0.9 ×10^−6 mol min^−1 mg cells^−1; in series [4] (100 μg/mL, no glucose), 16.00 ± 0.8 ×10^−6 mol min^−1 mg cells^−1. The inhibition at 100 µg/mL in series [4] (setting [11]) was 52%; in series [4] (setting [12]), 65%. In addition, the “Decrease of proteinase secretion” value in series [5] is on record as 23.5%; in series [6] it was 22%. Moreover, in series [7], the “Appearance of zone around disks (clear = fungicidal nature, turbid = fungistatic nature)” value is recorded as “turbid”. Further, the “Decrease of phospholipase secretion” value in series [8] (at MIC, 1 h exposure) is 30%; in series [8] (at MIC/4, 1 h exposure), 25%.
